This is an account of results in patent US12252481B2, “Anti-viral compounds” (Aligos Therapeutics, Inc., priority 2021, dated 2025).

Molecules are shown by their SMILES. Read-outs that look alike come from different tables or passages of the source.

One data set addresses 3CLpro (Severe acute respiratory syndrome coronavirus 2, UniProt P0DTD1). The conditions noted are these: cited from earlier work.
The next data set concerns SARS-CoV-2. The conditions noted are these: cited from earlier work.
Data set [1] deals with B.1.1.7 lineage SARS-CoV-2. As to the kind of experiment: microbe, parasite or virus in culture. The class given is cell-based.
A further data set addresses T1, SARS-Cov-2 3CLpro (Severe acute respiratory syndrome coronavirus 2, UniProt P0DTD1).
T1 construct: 3CLpro and HRV3C was added using a Multidrop Combi
Put plainly: biochemical.

The target in a further data set is T2, HRV3C (Human rhinovirus 14, UniProt P03303).
T2 construct: 3CLpro and HRV3C was added using a Multidrop Combi
T2 sequence (P03303 1538-1719): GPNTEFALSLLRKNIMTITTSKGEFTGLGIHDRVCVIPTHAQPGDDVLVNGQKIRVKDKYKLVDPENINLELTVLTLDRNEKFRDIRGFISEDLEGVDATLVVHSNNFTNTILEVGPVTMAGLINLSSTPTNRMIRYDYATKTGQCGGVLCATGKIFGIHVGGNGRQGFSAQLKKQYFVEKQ
As to the kind of experiment: biochemical. Also on record: species or system HRV.

Another data set has as its target T3, human cathepsin L (Homo sapiens, UniProt P07711).
T3 construct: purchased R&D Systems
As to the kind of experiment: Cathepsin L assay (Z-FR-AMC fluorescence). In kind it is biochemical. The conditions noted are these: 10 pM human cathepsin L, 30 mins preincubation, Z-FR-AMC 2 μM. The procedure, abridged:
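Human cathepsin L (10 pM) was preincubated 30 min with compound, then reactions were started with Z-FR-AMC substrate (2 μM final). AMC fluorescence (355/460 nm) was read every 2 min over 30 min. IC50 came from a four-parameter curve fit.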

Data set [2] can be described thus: in vitro. The conditions noted are these: human.
A short description of data set [3]: Cytotoxicity in HeLa cells without OC43 virus (cell-titer-glo). The conditions noted are these: human.
For data set [4], the system named is SARS-CoV-2-GHB-03021/2020. The class given is cell-based. The conditions noted are these: read-out: VeroE6 + CP (EC50).
The subject of data set [5] is human beta-coronavirus OC43. As to the kind of experiment: OC43 coronavirus antiviral assay in HeLa cells (cytopathic effect, cell-titer-glo). The class given is cell-based. The conditions noted are these: 6 days at 33° C., read-out: EC50 (class).
Data set [6] in a line: in vitro. The conditions noted are these: human. The source holds these as a separate data set.
Data set [7] deals with A549-dual_ACE2_TMPRSS2 cells. The conditions noted are these: read-out: A549-dual_ACE2_TMPRSS2 (CC50); assay medium without virus, MTS, numeric values.
A further data set concerns Vero E6-eGFP cells. The conditions noted are these: read-out: VeroE6 + CP (CC50), absence of virus, numeric values.
[8] abbreviates: Severe acute respiratory syndrome coronavirus 2, 96 h; read-out: A549-dual_ACE2_TMPRSS2 (EC50).
The mark [9] stands for this setting: 3CLpro, 30 mins preincubation, SAMDI-MS, read-out: SARS-Cov-2 IC50 (class).
Where [10] appears, read: HRV3C, 30 mins preincubation, SAMDI-MS, read-out: HRV IC50 (bound).
[11] abbreviates: Betacoronavirus 1, OC43, HeLa, 144 h.
[12] abbreviates: read-out: A549-dual_ACE2_TMPRSS2 (EC50).

T3 sequence (P07711 114-333): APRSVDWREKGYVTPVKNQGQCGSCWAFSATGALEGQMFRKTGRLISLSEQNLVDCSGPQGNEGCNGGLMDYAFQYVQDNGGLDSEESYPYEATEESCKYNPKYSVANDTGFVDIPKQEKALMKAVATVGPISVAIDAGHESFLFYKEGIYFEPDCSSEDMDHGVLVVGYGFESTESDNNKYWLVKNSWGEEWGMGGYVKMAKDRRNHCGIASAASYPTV

Take `CN1CCN(C(=O)N[C@@H](Cc2ccccc2)C(=O)N[C@H](/C=C/S(=O)(=O)c2ccccc2)CCc2ccccc2)CC1` [Example K117777]: on 3CLpro, the “inhibitory effect on the 3CLpro” value is recorded as “lacks an inhibitory effect”. Also, the antiviral effect result in the data set on SARS-CoV-2 (A549-ACE2 when TMPRSS2 was expressed (Steuten et al.)) is given as “abolished”. The “inhibition of SARS-CoV-2” value with SARS-CoV-2 (VeroE6, A549-ACE2 and/or HeLa-ACE2 (Mellott et al.)) was “potent inhibition”.

Regarding `CO[C@H](C(C)C)[C@H](NC(=O)C(F)(F)C(F)(F)F)C(=O)N1C[C@H]2[C@@H]([C@H]1C(=O)N[C@H](C#N)C[C@@H]1CCNC1=O)[C@H]1C=C[C@@H]2C1` [Compound 135], the EC50 in data set [1] (setting [8]) was below 100 nM. For the same compound, the results for the IC50 at SARS-Cov-2 3CLpro (setting [9]), on HRV3C (setting [10]) and at human cathepsin L were below 20 nM, above 0.5 µM and at least 10 µM, respectively. The compound also yielded a CC50 in “in vitro [2]” above 1 µM.

As for `CC(C)(C)[C@H](NC(=O)C(F)(F)F)C(=O)N1C[C@H]2[C@@H]([C@H]1C(=O)N[C@H](C#N)C[C@@H]1CCNC1=O)[C@H]1C=C[C@@H]2C12CC2` [Example 25, (1′R,2′S,3′S,6′R,7′S)—N-[(1S)-1-cyano-2-[(3S)-2-oxopyrrolidin-3-yl]ethyl]-4′-[(2S)-3,3-dimethyl-2-(2,2,2-trifluoroacetamido)butanoyl]-4′-azaspiro[cyclopropane-1,10′-tricyclo[5.2.1.0^{2,6}]decan]-8′-ene-3′-carboxamide], the EC50 was 100 to 1000 nM in [1] (Severe acute respiratory syndrome coronavirus 2, 96 h, read-out: A549-dual_ACE2_TMPRSS2 (EC50)); 100 to 1000 nM in data set [4]; below 100 nM in data set [5] (setting [11]). This compound also gave a CC50 at 6 days in [3] above 100 µM. For the same compound, the values for the IC50 against SARS-Cov-2 3CLpro, at HRV3C and against human cathepsin L were below 20 nM, above 10 µM and at least 10 µM, respectively. Also, the CC50 in “in vitro [2]” is above 10 µM.

Consider `Cc1cn(C(C(=O)N2C[C@H]3[C@@H]([C@H]2C(=O)N[C@H](C#N)C[C@@H]2CCNC2=O)[C@H]2C=C[C@@H]3C2)C(C)(C)C)nn1` (stereo partly shown) [Compound 53], for which the EC50 in [1] (setting [8]) lay within 1000 to 10000 nM; in data set [4], 100 to 1000 nM; in data set [5] (setting [11]), 1000 to 10000 nM. In addition, the CC50 in the data set “in vitro [6]” and in the data set “in vitro [2]” was above 10 µM throughout. Also, the IC50 at SARS-Cov-2 3CLpro (setting [9]) was 20 to 200 nM; on HRV3C (setting [10]) it was above 10 µM; on human cathepsin L, at least 10 µM.

For the compound `[2H]C1=C[C@@H]2C[C@H]1[C@H]1[C@@H]2CN(C(=O)[C@@H](NC(=O)C(F)(F)C(F)(F)F)C(C)(C)C)[C@@H]1C(=O)N[C@H](C#N)C[C@@H]1CCNC1=O` [Compound 125], the CC50 in the data set “in vitro [6]” is above 100 µM. For the same compound, in data set [5] (setting [11]), the EC50 is below 100 nM. Moreover, the IC50 at SARS-Cov-2 3CLpro (setting [9]) was below 20 nM; at HRV3C (setting [10]) it was above 0.5 µM.

Turning to `CC(C)(C)[C@H](NC(=O)C(F)(F)F)C(=O)N1C[C@H]2[C@@H]([C@H]1C(=O)N[C@H](C#N)CC1Cc3ccccc3NC1=O)[C@H]1C=C[C@@H]2C1` (stereo partly drawn) [Example 29, (1S,3aR,4S,7R,7aS)—N-((1S)-1-cyano-2-(2-oxo-1,2,3,4-tetrahydroquinolin-3-yl)ethyl)-2-((S)-3,3-dimethyl-2-(2,2,2-trifluoroacetamido)butanoyl)-2,3,3a,4,7,7a-hexahydro-1H-4,7-methanoisoindole-1-carboxamide], the concentration giving a half-maximal response (EC50) in data set [1] (setting [8]), in data set [4] and in data set [5] (setting [11]) was below 100 nM in each case. The CC50 in “in vitro [6]” and in the data set “in vitro [2]” was above 10 µM each time. The figures for the 50% inhibitory concentration (IC50) on SARS-Cov-2 3CLpro (setting [9]), on HRV3C (setting [10]) and at human cathepsin L were below 20 nM, above 10 µM and at least 10 µM, respectively.

On to `Cc1cc(C(=O)N[C@H](C(=O)N2C[C@H]3[C@@H]([C@H]2C(=O)N[C@H](C#N)C[C@@H]2CCNC2=O)[C@H]2C=C[C@@H]3C2)C(C)(C)C)no1` [Example 4, (1R,2S,3S,6R,7S)—N-[(1S)-1-cyano-2-[(3S)-2-oxopyrrolidin-3-yl]ethyl]-4-[(2S)-3,3-dimethyl-2-[(5-methyl-1,2-oxazol-3-yl)formamido]butanoyl]-4-azatricyclo[5.2.1.0^{2,6}]dec-8-ene-3-carboxamide], for which the EC50 in data set [1] (setting [12]) was 100 to 1000 nM; in data set [4], 100 to 1000 nM; in [5], below 100 nM. For the same compound, the figures for the CC50 (in [7]; with Vero E6-eGFP cells; in the data set with HeLa cells) were above 10 µM, above 50 µM and above 100 µM, respectively. Besides, the IC50 was 20 to 200 nM at SARS-Cov-2 3CLpro (setting [9]), above 10 µM at HRV3C (setting [10]) and at least 10 µM at human cathepsin L.

As to `CC(C)(C)[C@H](NC(=O)C1(C(F)(F)F)CC1)C(=O)N1C[C@H]2[C@@H]([C@H]1C(=O)N[C@H](C#N)C[C@@H]1CCNC1=O)[C@H]1C=C[C@@H]2C1` [Example 20, (1R,2S,3S,6R,7S)—N-[(1S)-1-cyano-2-[(3S)-2-oxopyrrolidin-3-yl]ethyl]-4-[(2S)-3,3-dimethyl-2-{[1-(trifluoromethyl)cyclopropyl]formamido}butanoyl]-4-azatricyclo[5.2.1.0^{2,6}]dec-8-ene-3-carboxamide], the EC50 was 100 to 1000 nM in data set [1] (setting [12]), below 100 nM in data set [4] and below 100 nM in data set [5]. Further, the CC50 is above 10 µM in data set [7], above 50 µM in the data set with Vero E6-eGFP cells and above 100 µM in the data set with HeLa cells. The IC50 at SARS-Cov-2 3CLpro (setting [9]) was below 20 nM; at HRV3C (setting [10]), above 10 µM; against human cathepsin L, at least 10 µM.

For `CC(C)(C)[C@H](NC(=O)C(F)(F)F)C(=O)N1C[C@@H]2[C@@H]3CC[C@@H](C3)[C@@H]2[C@H]1C(=O)N[C@H](C#N)CC1Cc2ccccc2NC1=O` (stereo partly drawn) [Example 31, (1S,3aR,4R,7S,7aS)—N-((1S)-1-cyano-2-(2-oxo-1,2,3,4-tetrahydroquinolin-3-yl)ethyl)-2-((S)-3,3-dimethyl-2-(2,2,2-trifluoroacetamido)butanoyl)octahydro-1H-4,7-methanoisoindole-1-carboxamide], the EC50 is below 100 nM in [1] (setting [8]), 100 to 1000 nM in data set [4] and 100 to 1000 nM in [5] (setting [11]). For the same compound, the CC50 in “in vitro [6]” and in the data set “in vitro [2]” was above 10 µM in each case. Besides, the IC50 was below 20 nM at SARS-Cov-2 3CLpro (setting [9]), above 10 µM at HRV3C (setting [10]) and at least 10 µM against human cathepsin L.

In the case of `CC(C)(C)[C@H](NC(=O)C(F)(F)F)C(=O)N1C[C@@H]2[C@@H]3CC[C@@H](C3)[C@@H]2[C@H]1C(=O)N[C@H](C#N)C[C@@H]1CC2(CC2)NC1=O` [Example 15, (1S,3aR,4R,7S,7aS)-N-((S)-1-cyano-2-((R)-5-oxo-4-azaspiro[2.4]heptan-6-yl)ethyl)-2-((S)-3,3-dimethyl-2-(2,2,2-trifluoroacetamido)butanoyl)octahydro-1H-4,7-methanoisoindole-1-carboxamide], the EC50 in data set [1] (setting [8]) and in data set [4] was below 100 nM each time. Further, the IC50 on SARS-Cov-2 3CLpro (setting [9]) was below 20 nM; at HRV3C (setting [10]) it was above 10 µM; at human cathepsin L, at least 10 µM. This compound also registered a CC50 in the data set “in vitro [2]” above 10 µM.

In “in vitro [6]”, `CC(C)(C)[C@H](NC(=O)C(F)(F)Cl)C(=O)N1C[C@@H]2[C@H]3C[C@@H]([C@@H]2[C@H]1C(=O)N[C@H](C#N)C[C@@H]1CCNC1=O)[C@H](F)C3` [Compound 134, (1S,3aR,4S,6R,7S,7aR)-2-((S)-2-(2-chloro-2,2-difluoroacetamido)-3,3-dimethylbutanoyl)-N-((S)-1-cyano-2-((S)-2-oxopyrrolidin-3-yl)ethyl)-6-fluorooctahydro-1H-4,7-methanoisoindole-1-carboxamide] displayed a CC50 above 100 µM. Moreover, the concentration for a half-maximal effect (EC50) in [5] (setting [11]) is below 100 nM. Further, the IC50 on SARS-Cov-2 3CLpro (setting [9]) was below 20 nM; at HRV3C (setting [10]), above 0.5 µM; against human cathepsin L, at least 10 µM.

As a reminder, the EC50 is the concentration giving half of the maximal effect. Usually IC50 stands for the point on the concentration scale where inhibition reaches its midpoint.
